Measured values: paper PMC1978516, “The PDZ Domain as a Complex Adaptive System” (PLoS ONE, 2007)
Ends that are not written are not given here.

Assays:
[1] = tested on: PSD95-PDZ2; experiment: peptide ELISA on immobilized GST-PDZ fusion; format: binding; details: Fig. 3
Description: (§1) Figure 3 Binding of 126 proteomic fragments (natural ligands) to six PDZ domains of PSD95 and SAP97. Binding histograms were obtained by peptide ELISA performed on purified GST fusions of the indicated domains immobilized in micro-titer plate wells as described previously. The X axis indicates the i.d. numbers of natural ligands (see Table S2). The Y axis indicates the peptide ELISA kinetics slope value in arbitrary units (a.u.). The 127th and 128th wells in each of the six sets were loaded with irrelevant peptides to indicate background signal. To illustrate internal consistency of the affinity evaluations obtained by peptide ELISA and their external consistency with the previously published affinity measurements, the reported affinities of the five PDZ domain-ligand pairs obtained by three different research groups using fluorescence polarization, [18], [32] are shown.
(§2) Wells of microtiter plates were coated with 1 µg of the indicated GST-PDZ domain fusions, washed with TBS-T and blocked with 1% BSA in the same way as described above for phage ELISA. Individual biotinylated peptides (30 ng) were pre-incubated with 1 µg of streptavidin-HRP conjugate (Pierce) in 300 µl of TBS-T for 30 min at RT. One hundred µl of the peptide-streptavidin-HRP conjugate were added to 100 µl of TBS-T left in each coated well after the final wash of the protein immobilization/blocking procedure. Microtiter plates were incubated for 1 hour at RT, and then washed 5 (x1mL) times with TBS-T. The amounts of peptides retained were quantified colorimetrically by adding soluble HRP substrate (ABTS/H2O2) and measuring ELISA kinetic slopes. ELISA readings were taken on a SpectraMAX190 plate reader (Molecular Devices) at 405 nm. To ensure reproducibility, all peptide ELISA experiments presented were repeated at least three times in at least three separate experiments performed by two different experimenters.

[2] = tested on: PSD95-PDZ3; experiment: peptide ELISA on immobilized GST-PDZ fusion; format: binding; details: Fig. 3
Description: as §1, §2

[3] = tested on: SAP97-PDZ2; experiment: peptide ELISA on immobilized GST-PDZ fusion; format: binding; details: Fig. 3
Description: as §1, §2

[4] = tested on: first PSD95 PDZ domain; details: cited from earlier work
Description: (§3) In order to gain insight into the pattern recognition differences of the PDZ domains that belong to the same class but are able to differentiate between peptide ligands sharing the class-defining C-terminal consensus, we investigated a particular case of this general puzzle, namely, the differences in recognition preferences between the second and third PDZ domains of PSD95, which are classified as type I PDZ domains but are known to discriminate between various X-(S/T)-X-(V/I/L)-COOH ligands, [18]. In Fig. 5A we compare two sets of C-terminal sequences. The first set represents the s ...

[5] = tested on: second PSD95 PDZ domain; details: cited from earlier work
Description: as §3

[6] = tested on: third PSD95 PDZ domain; details: cited from earlier work
Description: as §3

[7] = tested on: PSD95-PDZ3; experiment: phage ELISA on immobilized GST-PDZ fusion; format: binding; details: Fig. 1 and not shown
Description: Binding histograms were obtained by individual phage ELISA performed on purified GST fusions of the indicated domains immobilized in micro-titer plate wells [40]. For accurate relative affinity evaluations and cross-domain comparison, the slopes of individual ELISA kinetics were determined and normalized by the highest slope value in each of the six sets shown. The 96th well in each set was loaded with a library aliquot to indicate background. Axis X indicates identification (i.d.) numbers of individual artificial ligands (see individual ligand sequences together with their i.d. numbers in Table S1). Axis Y indicates the normalized relative affinity. The domain organization of the PSD95 and SAP97 proteins is shown above histograms.
GST fusion-coated microtiter ELISA plates (COSTAR) were prepared by passive immobilization of 1 µg of the indicated GST fusion proteins (Fig. 1) per well in 200 µl of 0.1M NaHCO3, pH 8.0, overnight at 4°C. Following protein coating, plates were blocked by adding 150 µl of 1% BSA in TBS for 1 hour at RT. Following incubation, the wells with immobilized target proteins were washed 5 (x1ml) times with TBS-T. One hundred µl of freshly prepared individual phage lysate was added to the ELISA plate wells and incubated for 1 hour at RT. Following incubation, unbound phages were washed away with TBS-T and the amount of retained phages was determined with polyclonal T7 phage-specific antibodies followed by monoclonal anti-rabbit antibodies conjugated to horseradish peroxidase (HRP) (Amersham Pharmacia). The individual phage ELISA kinetics were followed and quantified colorimetrically using soluble HRP substrate (ABTS/H2O2). ELISA readings were taken on a SpectraMAX190 plate reader (Molecular Devices) at 405 nm. To ensure reproducibility, each of the individual phage ELISA binding histograms presented was obtained at least three times in at least three separate experiments performed by two different experimenters.

Substance | interaction with the first PSD95 PDZ domain [4] | interaction with the second PSD95 PDZ domain [5] | interaction with the third PSD95 PDZ domain [6] | interaction with PSD95-PDZ3 in vitro [7] | further results
ALPDGNIAESLESLV> [compound 018, N-terminally biotinylated 15-mer proteomic fragment, SWISS-PROT P23471, receptor-type tyrosine protein phosphatase zeta] | – | – | – | – | binding to the second PDZ domain of PSD95 [1]: bind to the second PDZ domains; binding to the third PDZ domain of PSD95 [2]: not to their third PDZ domains; binding to the second PDZ domain of SAP97 [3]: bind to the second PDZ domains
EKLSSIESDV-OH [NR2B] | bind | bind | fail to interact | – | –
IADESDPAESMESLV> [compound 017, N-terminally biotinylated 15-mer proteomic fragment, SWISS-PROT P23470, receptor-type tyrosine protein phosphatase gamma] | – | – | – | – | binding to the second PDZ domain of PSD95 [1]: bind to the second PDZ domains; binding to the third PDZ domain of PSD95 [2]: not to their third PDZ domains; binding to the second PDZ domain of SAP97 [3]: bind to the second PDZ domains
KKMPSIESDV-OH [NR2A] | bind | bind | fail to interact | – | –
TRGTKRSWYHSF> [compound 17] | – | – | – | interacts selectively and with reasonable affinity | –
TRGTKRSWYYSF> [compound 20] | – | – | – | interacts selectively and with reasonable affinity | –
TSGTKRSWYHSF> [compound 18] | – | – | – | interacts selectively and with reasonable affinity | –
TTGKKRRWYHSF> [compound 19] | – | – | – | interacts selectively and with reasonable affinity | –
VNIKKIFTDV-OH [Kv1.3] | bind | bind | fail to interact | – | –
VNITKMLTDV-OH [Kv1.2] | bind | bind | fail to interact | – | –
VNKSKLLTDV-OH [Kv1.1] | bind | bind | fail to interact | – | –
